# Data: ChEMBL document CHEMBL3885861, “Open TG-GATES”
# Species: Rattus norvegicus
# Assay: Open TG-GATES - Regimen: Daily Repeat
# Format: toxicity, organism-based, Sprague-Dawley
# Design: regimen Daily Repeat, gender Male, age 6 weeks
# Settings: in vivo, iv, route intravenous injection; for APTT / Bas / Eos / Fbg / Hb / Ht / Lym / MCHC / MCV / Mono / Neu / PT / Plat / RBC / Ret / WBC / MCH: tissue Blood; for KIDNEY_L / KIDNEY_R / KIDNEY_TOTAL: tissue Kidney; for LIVER: tissue Liver
# [1] = 0 mg/kg, 72 h, dose level Control, time 3 day
# [2] = 0 mg/kg, 72 h, tissue Plasma, dose level Control, time 3 day
# [3] = 0 mg/kg, […], dose level Control, time 7 day
# [4] = 0 mg/kg, […], dose level Control, time 14 day
# [5] = 0 mg/kg, […], dose level Control, time 28 day
# [6] = 0 mg/kg, […], tissue Plasma, dose level Control, time 7 day
# [7] = 0 mg/kg, […], tissue Plasma, dose level Control, time 14 day
# [8] = 0 mg/kg, […], tissue Plasma, dose level Control, time 28 day
# [9] = 1 mg/kg, 72 h, dose level Low, time 3 day
# [10] = 1 mg/kg, 72 h, tissue Plasma, dose level Low, time 3 day
# [11] = 1 mg/kg, […], dose level Low, time 7 day
# [12] = 1 mg/kg, […], dose level Low, time 14 day
# [13] = 1 mg/kg, […], dose level Low, time 28 day
# [14] = 1 mg/kg, […], tissue Plasma, dose level Low, time 7 day
# [15] = 1 mg/kg, […], tissue Plasma, dose level Low, time 14 day
# [16] = 1 mg/kg, […], tissue Plasma, dose level Low, time 28 day
sequence,measurement,setting,value
CARBOPLATIN,TERMINAL_BW,[1],221.4 g
same,APTT,[1],23.3 s
same,Bas,[1],0%
same,Eos,[1],0.8%
same,Fbg,[1],298.8 mg/dL
same,Hb,[1],13 g/dL
same,Ht,[1],40.2%
same,Lym,[1],80.4%
same,MCHC,[1],32.2%
same,MCV,[1],63.6 fL
same,Mono,[1],2.6%
same,Neu,[1],15.4%
same,PT,[1],16.2 s
same,Plat,[1],127.8 x10_4/uL
same,RBC,[1],633 x10_4/ul
same,Ret,[1],5.4%
same,WBC,[1],112.5 x10_2/uL
same,KIDNEY_L,[1],1 g
same,KIDNEY_R,[1],1 g
same,KIDNEY_TOTAL,[1],2 g
same,ALP,[2],1505 IU/L
same,ALT,[2],38.6 IU/L
same,AST,[2],67.6 IU/L
same,BUN,[2],18 mg/dL
same,CRE,[2],0.2 mg/dL
same,DBIL,[2],0 mg/dL
same,GLC,[2],182.4 mg/dL
same,IP,[2],7.3 mg/dL
same,K,[2],4.6 meq/L
same,LDH,[2],206.4 IU/L
same,PL,[2],150 mg/dL
same,RALB,[2],3 g/dL
same,TBIL,[2],0.004 mg/dL
same,TC,[2],78.2 mg/dL
same,TG,[2],103 mg/dL
same,TP,[2],5.4 g/dL
same,gamma-GTP,[2],1.6 IU/L
same,TERMINAL_BW,[3],254.4 g
same,TERMINAL_BW,[4],298 g
same,TERMINAL_BW,[5],364.6 g
same,APTT,[3],23.5 s
same,Bas,[3],0%
same,Eos,[3],0.8%
same,Fbg,[3],312.2 mg/dL
same,Ht,[3],40.5%
same,Lym,[3],81.4%
same,MCH,[3],20.6 pg
same,MCHC,[3],32.4%
same,MCV,[3],63.6 fL
same,Mono,[3],2.4%
same,Plat,[3],123.2 x10_4/uL
same,RBC,[3],638.2 x10_4/ul
same,Ret,[3],4.9%
same,WBC,[3],120.2 x10_2/uL
same,APTT,[4],25.2 s
same,Bas,[4],0%
same,Eos,[4],1%
same,Fbg,[4],296.8 mg/dL
same,Hb,[4],13.6 g/dL
same,Ht,[4],40.5%
same,Lym,[4],80.8%
same,MCHC,[4],33.6%
same,MCV,[4],60.3 fL
same,Mono,[4],3.4%
same,Plat,[4],128.4 x10_4/uL
same,RBC,[4],672.4 x10_4/ul
same,Ret,[4],3.6%
same,WBC,[4],136.2 x10_2/uL
same,APTT,[5],24.2 s
same,Bas,[5],0%
same,Eos,[5],1%
same,Fbg,[5],308.6 mg/dL
same,Ht,[5],42.1%
same,Lym,[5],82.2%
same,MCH,[5],19.9 pg
same,MCV,[5],56.5 fL
same,Mono,[5],2.6%
same,PT,[5],16 s
same,Plat,[5],108.9 x10_4/uL
same,RBC,[5],746.2 x10_4/ul
same,Ret,[5],2.1%
same,WBC,[5],150.1 x10_2/uL
same,KIDNEY_L,[3],1.1 g
same,KIDNEY_R,[3],1.2 g
same,KIDNEY_TOTAL,[3],2.3 g
same,KIDNEY_L,[4],1.2 g
same,KIDNEY_R,[4],1.2 g
same,KIDNEY_TOTAL,[4],2.4 g
same,KIDNEY_L,[5],1.3 g
same,KIDNEY_R,[5],1.3 g
same,KIDNEY_TOTAL,[5],2.7 g
same,LIVER,[4],13.1 g
same,LIVER,[5],14.9 g
same,ALP,[6],1596.2 IU/L
same,ALT,[6],39 IU/L
same,AST,[6],70.6 IU/L
same,BUN,[6],17.6 mg/dL
same,CRE,[6],0.2 mg/dL
same,DBIL,[6],0 mg/dL
same,GLC,[6],182.6 mg/dL
same,IP,[6],7.8 mg/dL
same,K,[6],4.7 meq/L
same,LDH,[6],172.8 IU/L
same,PL,[6],144 mg/dL
same,RALB,[6],3.1 g/dL
same,TBIL,[6],0.002 mg/dL
same,TC,[6],74.6 mg/dL
same,TG,[6],87.8 mg/dL
same,TP,[6],5.6 g/dL
same,gamma-GTP,[6],2.2 IU/L
same,ALP,[7],1124 IU/L
same,ALT,[7],38.2 IU/L
same,AST,[7],68.8 IU/L
same,BUN,[7],17.2 mg/dL
same,CRE,[7],0.2 mg/dL
same,DBIL,[7],0 mg/dL
same,GLC,[7],203 mg/dL
same,IP,[7],6.9 mg/dL
same,K,[7],4.3 meq/L
same,LDH,[7],155.6 IU/L
same,Na,[7],140.4 meq/L
same,PL,[7],146 mg/dL
same,RALB,[7],3 g/dL
same,TBIL,[7],0.008 mg/dL
same,TC,[7],73.8 mg/dL
same,TG,[7],110.8 mg/dL
same,TP,[7],5.7 g/dL
same,gamma-GTP,[7],3.6 IU/L
same,ALP,[8],1264.8 IU/L
same,ALT,[8],43 IU/L
same,AST,[8],76.2 IU/L
same,BUN,[8],17.6 mg/dL
same,CRE,[8],0.2 mg/dL
same,DBIL,[8],0.002 mg/dL
same,IP,[8],7.1 mg/dL
same,K,[8],4.3 meq/L
same,LDH,[8],202 IU/L
same,PL,[8],138.6 mg/dL
same,RALB,[8],3 g/dL
same,TBIL,[8],0.01 mg/dL
same,TC,[8],67.2 mg/dL
same,TG,[8],113 mg/dL
same,TP,[8],6 g/dL
same,gamma-GTP,[8],2.2 IU/L
same,TERMINAL_BW,[9],215.8 g
same,APTT,[9],23.9 s
same,Bas,[9],0%
same,Eos,[9],0.8%
same,Fbg,[9],317.8 mg/dL
same,Hb,[9],13 g/dL
same,Lym,[9],83%
same,MCHC,[9],32.2%
same,Mono,[9],2.8%
same,Neu,[9],12.6%
same,PT,[9],16.2 s
same,Plat,[9],122.5 x10_4/uL
same,RBC,[9],647.8 x10_4/ul
same,Ret,[9],4.5%
same,WBC,[9],100.1 x10_2/uL
same,KIDNEY_L,[9],0.9 g
same,KIDNEY_R,[9],0.9 g
same,KIDNEY_TOTAL,[9],1.9 g
same,LIVER,[9],9.5 g
same,ALP,[10],1749.2 IU/L
same,ALT,[10],44.2 IU/L
same,AST,[10],72.8 IU/L
same,BUN,[10],16.6 mg/dL
same,CRE,[10],0.2 mg/dL
same,DBIL,[10],0 mg/dL
same,GLC,[10],175.8 mg/dL
same,IP,[10],6.9 mg/dL
same,K,[10],4.6 meq/L
same,LDH,[10],189.6 IU/L
same,PL,[10],147.8 mg/dL
same,RALB,[10],3.1 g/dL
same,TBIL,[10],0.004 mg/dL
same,TC,[10],76.2 mg/dL
same,TG,[10],106.8 mg/dL
same,TP,[10],5.5 g/dL
same,gamma-GTP,[10],1.4 IU/L
same,TERMINAL_BW,[11],248.6 g
same,TERMINAL_BW,[12],299.2 g
same,TERMINAL_BW,[13],348.7 g
same,APTT,[11],22.2 s
same,Bas,[11],0%
same,Eos,[11],1%
same,Fbg,[11],304 mg/dL
same,Ht,[11],40.7%
same,Lym,[11],80.8%
same,MCH,[11],19.9 pg
same,MCHC,[11],32.4%
same,Mono,[11],2.4%
same,Plat,[11],136.3 x10_4/uL
same,RBC,[11],662 x10_4/ul
same,Ret,[11],4.6%
same,WBC,[11],108.6 x10_2/uL
same,APTT,[12],26.4 s
same,Bas,[12],0%
same,Eos,[12],1%
same,Fbg,[12],302.2 mg/dL
same,Hb,[12],14.1 g/dL
same,Ht,[12],42.1%
same,Lym,[12],83.2%
same,MCHC,[12],33.4%
same,MCV,[12],60.3 fL
same,Mono,[12],2.5%
same,Neu,[12],12%
same,Plat,[12],111 x10_4/uL
same,RBC,[12],698.8 x10_4/ul
same,Ret,[12],3.1%
same,WBC,[12],122.2 x10_2/uL
same,APTT,[13],24.7 s
same,Bas,[13],0%
same,Eos,[13],1.2%
same,Fbg,[13],311.6 mg/dL
same,Ht,[13],42.3%
same,Lym,[13],83.2%
same,MCH,[13],19.1 pg
same,MCHC,[13],35.1%
same,MCV,[13],54.4 fL
same,Mono,[13],2.6%
same,Neu,[13],12%
same,Plat,[13],105.6 x10_4/uL
same,RBC,[13],777.8 x10_4/ul
same,Ret,[13],1.7%
same,WBC,[13],94.6 x10_2/uL
same,KIDNEY_L,[11],1 g
same,KIDNEY_R,[11],1 g
same,KIDNEY_TOTAL,[11],2 g
same,KIDNEY_L,[12],1.2 g
same,KIDNEY_R,[12],1.2 g
same,KIDNEY_TOTAL,[12],2.4 g
same,KIDNEY_L,[13],1.3 g
same,KIDNEY_R,[13],1.3 g
same,KIDNEY_TOTAL,[13],2.6 g
same,LIVER,[11],11.2 g
same,LIVER,[13],13.5 g
same,ALP,[14],1760.4 IU/L
same,ALT,[14],40.6 IU/L
same,AST,[14],75 IU/L
same,BUN,[14],16.4 mg/dL
same,CRE,[14],0.2 mg/dL
same,Ca,[14],11 mg/dL
same,DBIL,[14],0 mg/dL
same,IP,[14],7.5 mg/dL
same,K,[14],4.6 meq/L
same,LDH,[14],138.8 IU/L
same,Na,[14],140.2 meq/L
same,PL,[14],138.2 mg/dL
same,RALB,[14],3 g/dL
same,TBIL,[14],0.008 mg/dL
same,TG,[14],94.6 mg/dL
same,TP,[14],5.6 g/dL
same,gamma-GTP,[14],2.2 IU/L
same,ALP,[15],1603 IU/L
same,ALT,[15],38 IU/L
same,AST,[15],80.4 IU/L
same,BUN,[15],18 mg/dL
same,CRE,[15],0.2 mg/dL
same,DBIL,[15],0.004 mg/dL
same,GLC,[15],171.6 mg/dL
same,IP,[15],6.4 mg/dL
same,K,[15],4.5 meq/L
same,LDH,[15],160 IU/L
same,PL,[15],130.2 mg/dL
same,RALB,[15],3.1 g/dL
same,TBIL,[15],0.01 mg/dL
same,TC,[15],64.8 mg/dL
same,TG,[15],101.6 mg/dL
same,TP,[15],5.9 g/dL
same,gamma-GTP,[15],2.6 IU/L
same,ALP,[16],1005 IU/L
same,ALT,[16],40.4 IU/L
same,CRE,[16],0.2 mg/dL
same,DBIL,[16],0 mg/dL
same,GLC,[16],181 mg/dL
same,IP,[16],6 mg/dL
same,K,[16],4.2 meq/L
same,LDH,[16],140.2 IU/L
same,PL,[16],133.8 mg/dL
same,RALB,[16],3 g/dL
same,TBIL,[16],0.006 mg/dL
same,TC,[16],68.8 mg/dL
same,TG,[16],102.2 mg/dL
same,TP,[16],6 g/dL
same,gamma-GTP,[16],2.4 IU/L
